Converted amounts (≈) assume the structure as drawn. Read-outs that look alike come from different tables or passages of the source.
Tests used:
KRAS G12D Ba/F3 = KRAS G12D Ba/F3 (Homo sapiens, UniProt P01116, G12D, cells depend on it); test: Ba/F3 proliferation assay, KRAS G12D; assay type: cell-based; conditions: 72 h, AlamarBlue, read-out: KRAS G12D Ba/F3 IC50
Experimental: Plasmids containing KRASG12 mutants(i.e. G12D, G12C, G12V) are obtained from GeneScript. To generate KRASG12-dependent Ba/F3 models, Ba/F3 cells are transduced with retroviruses containing vectors that harbor KRASG12 isoforms. Platinum-E cells (Cell Biolabs) are used for retrovirus packaging. Retrovirus is added to Ba/F3 cells. To ensure infection, 4 μg/mL polybrene is added and cells are spinfected. […] Cells with an infection efficiency of 10% to 20% are further cultivated and puromycin selection with 1 μg/mL is initiated. As a control, parental Ba/F3 cells are used to show selection status. Selection is considered successful when parental Ba/F3 cells cultures died. To evaluate the transforming potential of KRASG12 mutations, the growth medium is no longer supplemented with IL-3. Ba/F3 cells harboring the empty vector are used as a control. Approximately ten days before conducting the experiments, puromycin is left out.
Compounds are added using an Access Labcyte Workstation with a Labcyte Echo 550 or 555 accoustic dispenser. All treatments are performed in technical duplicates. […] AlamarBlue™ (ThermoFisher), a viability stain, is added and fluorescence measured in the PerkinElmer Envision HTS Multilabel Reader. The raw data are imported into and analyzed with the Boehringer Ingelheim proprietary software MegaLab (curve fitting based on the program PRISM, GraphPad Inc.).

SK-CO-1 cells = test: SK-CO-1 CTG proliferation assay (120 h) (CRC, G12V); assay type: cell-based; conditions: Homo sapiens
Experimental: (§1) SK-CO-1 cells (ATCC HTB-39) are dispensed into 384-well plates, flat and clear bottom (Greiner, PNr. 781091) at a density of 500 cells per well in 60 μL EMEM (Sigma M5650)+10% Fetal Calf Serum (HyClone, PNr.: SH30084.03) and incubated at 37° C. in a CO2 incubator overnight. The next day, compounds (10 mM stock in DMSO) are added with the ECHO acoustic liquid handler system (Beckman Coulter), including DMSO controls. Plates are incubated for 120 h, and cell viability is measured using CellTiter-Glo luminescent cell viability reagent (Promega product code G7570). Viability (stated as percent of control) is defined as relative luminescence units RLU of each well divided by the RLU of cells in DMSO controls.

SAS cells = test: SAS CTG proliferation assay (120 h) (HNSCC, wt amplified); assay type: cell-based
Experimental: as §1, with “SAS” for “SK-CO-1”, “(JCRB0260)” for “(ATCC HTB-39)”, “300” for “500”, “DMEM:F12 (Gibco 31330-038)+10%” for “EMEM (Sigma M5650)+10%”, “overnight” for “overnight.”

[1] = Plasma protein binding assay (PPB), equilibrium dialysis; assay type: in vitro ADME; conditions: bovine, 10% FCS in PBS, read-out: PPB 10% FCS (% fu)
Experimental: Binding of test compounds to plasma was determined using equilibrium dialysis (ED) and quantitative mass spectrometry interfaced with liquid chromatography (LC-MS). In brief, ED was performed with dialysis devices consisting of two chambers separated by a semipermeable membrane with a molecular weight cut-off of 5-10 kg/mol. One chamber was filled with 10% FCS in PBS containing 1-10 μmol/L test compound and the other chamber was filled with phosphate-buffer saline (PBS) with or without dextran. The dialysis chamber was incubated for 3-5 hours at 37° C. After incubation, protein was precipitated from aliquots of each chamber and the concentration of test compound in the supernatant of the plasma-containing compartment (cserum) and of the buffer-containing compartment (cbuffer) was determined by LC-MS. The fraction of unbound test compound (not bound to plasma) (fu) was calculated according to the following equation: […]

[2] = Solubility measurement (DMSO solution precipitation method); assay type: physicochemical; conditions: aqueous buffer, kinetic from dmso stock
Experimental: The DMSO solution is diluted with an aqueous medium (McIlvaine buffer with pH=4.5 or 6.8) to a final concentration of 250 μM. After 24 h of shaking at ambient temperature a potentially formed precipitate is removed by filtration. The concentration of the test compound in the filtrate is determined by LC-UV methods by calibrating the signal to the signal of a reference solution with complete dissolution of the test compound in acetonitrile/water (1:1) with known concentration.

NCI-H2122 cells = test: NCI-H2122 CTG proliferation assay (120 h) (NSCLC, G12C); assay type: cell-based; conditions: Homo sapiens
Experimental: The CTG assay is designed to measure quantitatively the proliferation of NCI-H2122 cells (ATCC CRL-5985), using the CellTiter Glow Assay Kit (Promega G7571). Cells are grown in RPMI medium (ATCC) supplemented with Fetal Calf Serum (Life Technologies, Gibco BRL, Cat. No. 10270-106). On “day 0” 200 NCI-H2122 cells are seeded in 60 μL RPMI ATCC+10% FCS+Penstrep in a black 384-well plate, flat and clear bottom (Greiner, PNr. 781091). Cells are then incubated in the plates at 37° C. in a CO2 incubator overnight. On day 1, compounds (10 mM stock in DMSO) are added with the ECHO acoustic liquid handler system (Beckman Coulter), including DMSO controls. Plates are incubated for 120 h, and cell viability is measured using CellTiter-Glo luminescent cell viability reagent (Promega product code G7570). Viability (stated as percent of control) is defined as relative luminescence units RLU of each well divided by the RLU of cells in DMSO controls. […] values are determined from viability measurements by non-linear regression using a four parameter model. • AsPC-1 CTG proliieradon assay (120 h) (pancreatic cancer, G12D)

[3] = McIlvaine buffer pH 4.5, 24 h, read-out: Solubility [μg/ml] pH 4.5
[4] = McIlvaine buffer pH 6.8, 24 h, read-out: Solubility [μg/ml] pH 6.8

Sequence of KRAS G12D Ba/F3 (P01116 whole entry G12D, canonical isoform): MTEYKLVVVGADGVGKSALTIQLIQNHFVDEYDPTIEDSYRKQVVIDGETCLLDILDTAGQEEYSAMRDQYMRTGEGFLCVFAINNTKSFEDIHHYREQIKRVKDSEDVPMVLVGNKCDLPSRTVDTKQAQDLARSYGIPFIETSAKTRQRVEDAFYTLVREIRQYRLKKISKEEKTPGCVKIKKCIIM

| SMILES | GI50 (KRAS G12D Ba/F3) [nM] | IC50 (SK-CO-1 cells) [nM] | IC50 (SAS cells) [nM] | fraction unbound [1] | solubility at 24 h [2, 3] [µg/mL] | solubility at 24 h [2, 4] [µg/mL] | IC50 (NCI-H2122 cells) [nM] |
| --- | --- | --- | --- | --- | --- | --- | --- |
| C[C@H](Oc1cc(O[C@H]2CNC(C)(C)C2)nc(-c2noc3c2CCC[C@@]32CCCc3sc(N)c(C#N)c32)n1)[C@@H]1CCCN1C (single isomer, unassigned) [II-8] | 388 | 774 | 2600 | 0.59 | > 145 | > 146 | 1340 |
| C[C@H](Oc1cc(Oc2nccs2)nc(-c2onc3c2CCC[C@@]32CCCc3sc(N)c(C#N)c32)n1)[C@@H]1CCCN1C [Example I-1] | 11 | 24 | 19 | 0.25 | 95 (≈ 161 µM) | < 1 | 1470 |
| C[C@H](Oc1cc(Oc2cccnc2)nc(-c2onc3c2CCC[C@@]32CCCc3sc(N)c(C#N)c32)n1)[C@@H]1CCCN1C [Example I-2] | 6 | 23 | 15 | 0.31 | > 125 | 89 (≈ 152 µM) | 740 |
| C[C@H](Oc1cc(Oc2cncnc2)nc(-c2onc3c2CCC[C@@]32CCCc3sc(N)c(C#N)c32)n1)[C@@H]1CCCN1C [Example I-3] | 5 | 29 | 14 | 0.57 | > 128 | > 121 | 2280 |
| C[C@H](Oc1cc(N[C@H]2CCOC2)nc(-c2onc3c2CCC[C@@]32CCCc3sc(N)c(C#N)c32)n1)[C@@H]1CCCN1C [Example I-4] | 41 | 762 | 719 | 0.6 | > 135 | 107 (≈ 186 µM) | 2390 |
| COC[C@H](C)Nc1cc(O[C@@H](C)[C@@H]2CCCN2C)nc(-c2onc3c2CCC[C@@]32CCCc3sc(N)c(C#N)c32)n1 [Example I-5] | 122 |  |  | 0.45 | 111 (≈ 192 µM) | 109 (≈ 189 µM) |  |
| C[C@H](Oc1cc(Nc2ccccn2)nc(-c2onc3c2CCC[C@@]32CCCc3sc(N)c(C#N)c32)n1)[C@@H]1CCCN1C [Example I-6] | 47 | 273 | 81 | 0.31 | 23 (≈ 39.5 µM) | 2 (≈ 3.43 µM) | 1120 |
| C[C@H](Oc1cc(Sc2ncccn2)nc(-c2onc3c2CCC[C@@]32CCCc3sc(N)c(C#N)c32)n1)[C@@H]1CCCN1C [Example I-7] | 97 | 796 | 221 | 0.61 | > 146 | 70 (≈ 117 µM) | 3610 |
| C[C@H](Oc1cc(OCC2(N(C)C)COC2)nc(-c2onc3c2CCC[C@@]32CCCc3sc(N)c(C#N)c32)n1)[C@@H]1CCCN1C [Example I-8] | 11 | 401 | 51 | 0.45 | > 143 | > 125 | 1260 |
| C[C@H](Oc1cc(Oc2cncnc2)nc(-c2noc3c2CCC[C@@]32CCCc3sc(N)c(C#N)c32)n1)[C@@H]1CCCN1C [II-1] | 6 | 18 | 20 | 0.19 | > 137 | > 124 | 715 |
| C[C@H](Oc1cc(Oc2nccs2)nc(-c2noc3c2CCC[C@@]32CCCc3sc(N)c(C#N)c32)n1)[C@@H]1CCCN1C [II-2] | 20 | 26 | 44 | 0.07 | > 109 | < 1 | 77 |
| C[C@H](Oc1cc(Oc2ccon2)nc(-c2noc3c2CCC[C@@]32CCCc3sc(N)c(C#N)c32)n1)[C@@H]1CCCN1C [II-3] | 27 | 84 | 67 | 0.12 | > 138 | 42 (≈ 73.2 µM) | 275 |
| C[C@H](Oc1cc(O[C@H]2CCOC2)nc(-c2noc3c2CCC[C@@]32CCCc3sc(N)c(C#N)c32)n1)[C@@H]1CCCN1C [II-4] | 31 | 28 | 44 | 0.54 | 80 (≈ 139 µM) | < 1 | 817 |
| C[C@H](Oc1cc(O[C@@H]2CNC2(C)C)nc(-c2noc3c2CCC[C@@]32CCCc3sc(N)c(C#N)c32)n1)[C@@H]1CCCN1C [II-9] | 5 | 171 | 179 | 0.52 |  |  | 1250 |
| C[C@H](Oc1cc(NCC2COC2)nc(-c2noc3c2CCC[C@@]32CCCc3sc(N)c(C#N)c32)n1)[C@@H]1CCCN1C [II-11] | 28 | 46 | 21 | 0.62 |  |  | 2130 |
| C[C@H](Oc1cc(Nc2ccncn2)nc(-c2noc3c2CCC[C@@]32CCCc3sc(N)c(C#N)c32)n1)[C@@H]1CCCN1C [II-15] | 59 | 91 | 87 | 0.5 |  |  | 847 |
| C[C@H](Oc1cc(Nc2ccccn2)nc(-c2noc3c2CCC[C@@]32CCCc3sc(N)c(C#N)c32)n1)[C@@H]1CCCN1C [II-16] | 43 |  |  | 0.37 | 41 (≈ 70.4 µM) | < 1 |  |
| C[C@H](Oc1cc(Nc2cccnn2)nc(-c2noc3c2CCC[C@@]32CCCc3sc(N)c(C#N)c32)n1)[C@@H]1CCCN1C [II-18] | 46 | 133 | 171 | 0.61 |  |  | 822 |
| C[C@H](Oc1cc(O[C@@H]2CNC[C@@H]2F)nc(-c2noc3c2CCC[C@@]32CCCc3sc(N)c(C#N)c32)n1)[C@@H]1CCCN1C [II-29] | 22 | 139 | 1050 | 0.52 |  |  | 731 |
